Laboratory results published in the METLIN SMRT retention time set (Domingo-Almenara et al. 2019).

Experiment: gradient 5% acetonitrile 3 min, to 50% in 2 min, to 85% in 15 min, held 3 min, 100 µL/min
Settings: column: Zorbax Extend-C18 2.1 x 50 mm; eluents: water / acetonitrile, 0.1% formic acid
How it was run: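 A Zorbax Extend-C18 column (2.1 × 50 mm, 1.8 μm) run at 100 μL/min with water and acetonitrile, both containing 0.1% formic acid, separated mixtures of ~100 pure standards. The HPLC was coupled to a quadrupole time-of-flight mass spectrometer operated in positive and negative ionization mode, with dead and dwell volumes of 40 μL and 900 μL. Each retention time was taken from a computationally picked adduct peak that was then manually inspected.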

Cn1cnc(S(=O)(=O)N2CCC(Cc3nncn3Cc3ccccc3)C2)c1 (stereo not given)
RP-LC retention time: 614 s

COC(=O)c1sc2ncccc2c1NC(=O)c1cccc(C)c1
RP-LC retention time: 972 s

COc1cccc(-c2nc(C3CCN(C(=O)C4COc5ccccc5O4)CC3)no2)c1 (stereo not given)
RP-LC retention time: 1060 s

Cn1nc(-c2nnc(-c3ccccc3F)o2)c2c1CCN(S(=O)(=O)c1ccccc1F)C2
RP-LC retention time: 903 s

O=C(c1ccc(F)c(F)c1)N1CCc2[nH]cnc2C1c1ccccc1 (stereo not given)
RP-LC retention time: 652 s

O=C(NCc1ccccc1Cl)C1CC(=O)N(CCc2c[nH]c3ccc(F)cc23)C1 (stereo not given)
RP-LC retention time: 811 s

Cc1ncc2c(n1)C[C@@H]1CC[C@H]2N1C(=O)c1sccc1C
RP-LC retention time: 654 s

CCCCOc1ccc(NC(=O)c2cc(=O)c3cc(Cl)ccc3o2)c2cccnc12
RP-LC retention time: 787 s

CCC(=O)N1CCc2cc(C(=O)NCc3ccc(C)o3)ccc21
RP-LC retention time: 757 s

CC(C)c1nc2cccnc2n1CCN1CCN(C(=O)Nc2ccc(F)cc2F)CC1
RP-LC retention time: 589 s

Cc1ccc(-c2nnc(-c3cccc(S(=O)(=O)NCC(=O)O)c3)o2)cc1
RP-LC retention time: 764 s

CC(=O)c1ccc(NC(=O)Cn2c(-c3cccnc3)nc3ccccc32)cc1
RP-LC retention time: 689 s

CCOc1cc(=O)c(C(=O)N2CCC(C(N)=O)CC2)nn1-c1ccc(C)cc1
RP-LC retention time: 610 s

Cc1ccnc(NC(=O)C2CCN(S(=O)(=O)c3ccc4c(c3)sc(=O)n4C(C)C)CC2)c1
RP-LC retention time: 794 s

CC(=O)c1cccc(NC(=O)c2c(F)cccc2F)c1
RP-LC retention time: 708 s

Cc1ccc2nc(-c3ccc(C)c(NC(=O)C(C)C)c3)[nH]c2c1
RP-LC retention time: 654 s

Cc1ccc(Nc2c(-c3cccc(O)c3)nc3cnccn23)c(C)c1
RP-LC retention time: 750 s

CCc1nc2c(NC(=O)c3ccccc3Br)cccn2n1
RP-LC retention time: 773 s

COc1ccccc1-c1nc2cnccn2c1NCCC(=O)N1CCc2ccccc21
RP-LC retention time: 772 s

CC(C)Cn1c(=O)c(C(=O)NCCN2CCCCC2)nc2cccnc21
RP-LC retention time: 552 s

COCCN1CCn2cc(S(=O)(=O)Nc3ccc(C)c(C)c3)cc2C1=O
RP-LC retention time: 745 s

O=C(Cn1nc2c3cc(-c4ccc(Cl)cc4)nn3ccn2c1=O)N1CCCCC1
RP-LC retention time: 924 s

CSc1ccccc1NC(=O)C(=O)NCC1(c2cccs2)CCCC1
RP-LC retention time: 1280 s

CC(=O)N1CCCC1c1nc(C2CN(S(=O)(=O)c3cccs3)C2)no1 (stereo not given)
RP-LC retention time: 703 s

COCCCNc1c(C(=O)OC)c(=O)[nH]c2c(Cl)cccc12
RP-LC retention time: 692 s

Cc1cccc(NC(=O)N2[C@H]3CC[C@@H]2c2cnc(C)nc2C3)c1
RP-LC retention time: 663 s

Cc1nn(C)c(C)c1CCN(C)C(=O)C1CCCCC(=O)N1C (stereo not given)
RP-LC retention time: 582 s

COc1ccc(NC(=O)N2CCN(c3cc(C)nc(N4CCOCC4)n3)CC2)c(OC)c1
RP-LC retention time: 589 s

CCN(CC)c1nc2ccsc2c(=O)n1CC(=O)NCc1ccc(F)cc1F
RP-LC retention time: 868 s

CCn1ccc2cc(S(=O)(=O)N3CCCC(C(=O)N4CCN(C)CC4)C3)ccc21 (stereo not given)
RP-LC retention time: 646 s

CC(C)C(=O)NCc1nc(-c2ccccc2Cl)no1
RP-LC retention time: 754 s

Cn1c(=O)c2cc(C(=O)NCc3cccnc3)nn2c2ccccc21
RP-LC retention time: 599 s

CC1Cc2ccccc2N1C(=O)CCn1c(=O)sc2ccccc21 (stereo not given)
RP-LC retention time: 923 s

COc1ccc(-c2cc3nc(C)cc(Nc4ccc(C(N)=O)cc4)n3n2)cc1OC
RP-LC retention time: 586 s

O=C(Nc1ccc(F)cc1)C1(c2cccs2)CCOCC1
RP-LC retention time: 798 s

Cc1cnc2n(c1=O)C(CC(=O)NCCc1ccc(S(N)(=O)=O)cc1)CS2 (stereo not given)
RP-LC retention time: 575 s

O=C(c1csc(N2CCN(c3ccc(Cl)cc3)CC2)n1)N1CCOCC1
RP-LC retention time: 942 s

CN(CCc1noc(C2CN(Cc3cc(Cl)ccc3F)C2)n1)S(C)(=O)=O
RP-LC retention time: 608 s

COc1cccc(-c2nc(C3CCN(S(=O)(=O)c4cc(C)c(C)cc4C)CC3)no2)c1
RP-LC retention time: 1280 s

CCc1cccc(NC(=O)Cn2nc3cc(C)nc(Nc4ccc(C)cc4)n3c2=O)c1
RP-LC retention time: 1140 s

CC(C)(CO)NCc1ccc(-c2cccc(C(F)(F)F)c2)o1
RP-LC retention time: 660 s

O=C(CCc1ccccc1)NC1CCS(=O)(=O)C1 (stereo not given)
RP-LC retention time: 619 s

Cc1ccc(-c2nc(-c3ccc(NS(=O)(=O)c4cccs4)cc3)no2)cc1F
RP-LC retention time: 1180 s

c1cc(CN2CC(Oc3ccc(-c4noc(C5CC5)n4)cc3)C2)cs1
RP-LC retention time: 700 s

COc1cccc(C2NC(=O)NC(C)=C2C(=O)OC2CCCCCC2)c1OC (stereo not given)
RP-LC retention time: 971 s

O=C(NCCC1=CCCCC1)C(=O)NCC1OCCCN1S(=O)(=O)c1ccccc1 (stereo not given)
RP-LC retention time: 911 s

CNS(=O)(=O)CCCOc1cccc2c1OC(C)(C)C2
RP-LC retention time: 776 s

Cc1cccc(C(=O)NCC2CCCN(S(=O)(=O)c3cc(C)c(C)cc3C)C2)c1 (stereo not given)
RP-LC retention time: 1060 s

CC(=O)N1c2ccc(S(=O)(=O)N3CCCCC3)cc2CC1C(=O)Nc1cc(C)ccc1C (stereo not given)
RP-LC retention time: 912 s

CCCn1c(=O)c(C)nc2cc(-c3noc(-c4cccc(F)c4)n3)ccc21
RP-LC retention time: 1210 s

Cn1c(=O)n(CCN2CCOCC2)c(=O)c2c1nc1n2CCCN1C1CCCCC1
RP-LC retention time: 627 s

Cc1ccc(S(=O)(=O)N2CCC(C(=O)NCC(=O)N3CCCc4ccccc43)CC2)cc1
RP-LC retention time: 843 s

Cc1ccc(Cc2nc(-c3ccc4oc(C)nc4c3)no2)cc1
RP-LC retention time: 1070 s

CCCCN(C)C(=O)Cn1c(=O)c(S(=O)(=O)c2ccccc2)cc2ccccc21
RP-LC retention time: 893 s

CCc1nnc(-c2cccc(OCC(=O)N3CCCc4ccccc43)c2)o1
RP-LC retention time: 814 s

C[C@H]1CN(C(=O)Cc2ccccc2F)C[C@@H]1c1nc(-c2ccccc2)no1
RP-LC retention time: 1020 s

CC(C)c1ccc(-c2nc3ncccn3c2NCc2ccccc2)cc1
RP-LC retention time: 859 s

COc1ccc2c(c1)c(CN1CCC(C(=O)NCCN3CCN(C)CC3)CC1)cn2C
RP-LC retention time: 564 s

COc1ccccc1OCc1nn2c(CSc3ccccc3)nnc2s1
RP-LC retention time: 882 s

CCCc1ccc(S(=O)(=O)Nc2ccc3nc(S(=O)(=O)CCC)sc3c2)cc1
RP-LC retention time: 1080 s

Cc1cccc(CNC(=O)C2CCN(S(=O)(=O)c3cc(C(=O)N4CCCC4)n(C)c3)CC2)c1
RP-LC retention time: 747 s

Cc1cc(-c2nnc(-c3ccc(F)cc3)o2)c(C)n1CC(=O)NCC1CCCO1 (stereo not given)
RP-LC retention time: 771 s

CCc1cc(N2CCN(C(=O)COc3ccc(OC)cc3)CC2)nc2nncn12
RP-LC retention time: 602 s

Cc1cccc(NC(=O)C2CCN(S(=O)(=O)c3cccc4nsnc34)CC2)c1C
RP-LC retention time: 895 s

Cn1nc(-c2ccc(NC(=O)c3ccc([N+](=O)[O-])cc3Cl)cc2)ccc1=O
RP-LC retention time: 714 s

CCC1(O)C(=O)OCc2c1cc1n(c2=O)Cc2cc3c(N)cccc3nc2-1 (stereo not given)
RP-LC retention time: 632 s

O=C(CSCC(=O)N1CCOCC1)Nc1nc(-c2ccc3c(c2)OCO3)cs1
RP-LC retention time: 681 s

CC(C)Cn1c(CCNC(=O)c2ccc(C#N)cc2)nc2cccnc21
RP-LC retention time: 709 s

CCc1cc(=O)n(CC(=O)NCc2ccc(F)cc2F)c(N)n1
RP-LC retention time: 812 s

Cc1c(C(=O)N2CCN(C(=O)COc3ccccc3)CC2)[nH]c2ccccc12
RP-LC retention time: 819 s

O=C(C1=NNc2ccccc2S1(=O)=O)N1CCCCCC1
RP-LC retention time: 735 s

CCOc1ccc(-c2cn3ccn(-c4ccc(OC)c(OC)c4)c(=O)c3n2)cc1
RP-LC retention time: 781 s

O=S(=O)(Nc1ccc(Cn2cncn2)cc1)c1cc(F)cc(F)c1
RP-LC retention time: 708 s

Cn1ncc2c(N3CCSCC3)nc(C(=O)N3CCOCC3)nc21
RP-LC retention time: 635 s

O=C(c1cc2ccccc2o1)N1CCC(CNS(=O)(=O)Cc2ccccc2Cl)CC1
RP-LC retention time: 880 s

CCCn1c(=O)c2c(C(=O)NCc3ccc(Cl)cc3)cc(=O)n(CCC)c2n(C)c1=O
RP-LC retention time: 1060 s

CCc1ccccc1NC(=O)Nc1ccc2nnc(C)n2c1
RP-LC retention time: 712 s

O=C(OCCc1ccccn1)c1cn(-c2ccccc2)c(=O)c2ccccc12
RP-LC retention time: 696 s

CCNC(=O)N(C)Cc1ccc(C)s1
RP-LC retention time: 722 s

O=C(NCc1nc(-c2ccc(NS(=O)(=O)c3cccs3)cc2)no1)c1ccccc1
RP-LC retention time: 848 s

CC(=O)c1ccc(NC(=O)CC(C)n2cncn2)cc1 (stereo not given)
RP-LC retention time: 604 s

Cc1ccc(-c2nc3cnccn3c2Nc2ccc(C(=O)O)cc2)cc1
RP-LC retention time: 706 s

CCCCNC(=O)c1cc(NS(=O)(=O)c2ccc(C(C)(C)C)cc2)cnc1N1CCNCC1
RP-LC retention time: 706 s

Cc1cccc(CNC(=O)c2cc3n(n2)CC(C)(C(=O)NC2CCCC2)N(C)C3=O)c1 (stereo not given)
RP-LC retention time: 731 s

COC(=O)c1cc(C2CC2)nc2c1c(=O)n(Cc1ccccc1Cl)c(=O)n2C
RP-LC retention time: 1130 s

CCn1c(=O)n(Cc2cccc(Cl)c2)c(=O)c2cnc(-c3ccc(OC)cc3)nc21
RP-LC retention time: 1340 s

O=C(NCc1ccc(F)cc1)N1CCN(c2cc(-c3ccncc3)[nH]n2)CC1
RP-LC retention time: 611 s

CN1C(=O)[C@H]2CN(Cc3ccc(C#N)cc3)C[C@H]2C1=O
RP-LC retention time: 574 s

Cc1ccc(NS(=O)(=O)c2cc3n(c2)CCCNC3=O)c(C)c1
RP-LC retention time: 678 s

Cn1cc(C(=O)C(=O)N[C@H]2CN3CCC2CC3)c2ccccc21
RP-LC retention time: 672 s
